Test results taken from ChEMBL document CHEMBL4130400, “Development of GLUT4-selective antagonists for multiple myeloma therapy” (Eur J Med Chem, 2017).
Active and inactive are the calls of the source. The rule behind the calls is not given here. Where a SMILES comes first, the peptide text is derived from it. The star is where a group is joined. Cbz = O=C(OCc1ccccc1)*

Legend:
KMS-11 [1] = assay: Antiproliferative activity against human KMS11 cells over-expressing GFP after 72 hrs by CellTiter-Glo assay; type: functional, cell-based; details: KMS-11, 72 h
[2] = target: T1, Solute carrier family 2, facilitated glucose transporter member 4 (Homo sapiens, UniProt P14672); assay: Antagonist activity at human GLUT4 expressed in HEK293 cells transfected with GLUT1 shRNA assessed as inhibition of [3H]2-deoxy-D-glucose uptake preincubated for 5 mins followed by [3H]2-deoxy-D-glucose addition and measured after 6 mins; type: cell-based
T1 sequence (P14672 whole entry): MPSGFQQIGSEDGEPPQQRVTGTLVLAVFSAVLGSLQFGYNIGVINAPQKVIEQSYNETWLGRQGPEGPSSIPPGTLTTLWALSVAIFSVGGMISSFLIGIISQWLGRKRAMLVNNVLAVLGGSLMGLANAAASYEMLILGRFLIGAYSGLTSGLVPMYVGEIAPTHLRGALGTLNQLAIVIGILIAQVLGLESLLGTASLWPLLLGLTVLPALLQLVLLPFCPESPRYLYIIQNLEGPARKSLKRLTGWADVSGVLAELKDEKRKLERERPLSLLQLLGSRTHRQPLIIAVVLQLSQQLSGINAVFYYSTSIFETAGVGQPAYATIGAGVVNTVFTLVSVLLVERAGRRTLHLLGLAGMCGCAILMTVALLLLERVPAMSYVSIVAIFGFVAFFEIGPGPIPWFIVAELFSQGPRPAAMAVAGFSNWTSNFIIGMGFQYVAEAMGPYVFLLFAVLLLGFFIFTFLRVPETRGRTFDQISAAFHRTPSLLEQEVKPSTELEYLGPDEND

[3] = target: T2, Solute carrier family 2, facilitated glucose transporter member 4 (Homo sapiens) (UniProt P14672); assay: Antagonist activity at GLUT4 in human JJN-3 cells assessed as increase in sensitivity to ABT-199-induced cytotoxicity by measuring cell death at 10 uM after 72 hrs by CellTiter-Glo assay; type: cell-based
T2 sequence (whole entry): T1 sequence (P14672 whole entry)

Bone marrow cell [4] = assay: Cytotoxicity in multiple myeloma patient derived CD38(-)/CD45(-) non-myeloma bone marrow cells at 10 uM in presence of dexamethasone incubated for 48 hrs by CellTiter-Glo assay; type: cell-based; details: human
[5] = target: T2, Solute carrier family 2, facilitated glucose transporter member 4 (Homo sapiens); assay: Antagonist activity at GLUT4 in human MM1S cells assessed as increase in sensitivity to melphalan-induced cytotoxicity by measuring cell death at 10 uM after 72 hrs by CellTiter-Glo assay; type: cell-based
[6] = target: T3, Solute carrier family 2, facilitated glucose transporter member 8 (Homo sapiens, UniProt Q9NY64); assay: Antagonist activity at human GLUT8 expressed in HEK293 cells transfected with GLUT1 shRNA assessed as inhibition of [3H]2-deoxy-D-glucose uptake preincubated for 5 mins followed by [3H]2-deoxy-D-glucose addition and measured after 6 mins; type: cell-based
T3 sequence (Q9NY64 whole entry): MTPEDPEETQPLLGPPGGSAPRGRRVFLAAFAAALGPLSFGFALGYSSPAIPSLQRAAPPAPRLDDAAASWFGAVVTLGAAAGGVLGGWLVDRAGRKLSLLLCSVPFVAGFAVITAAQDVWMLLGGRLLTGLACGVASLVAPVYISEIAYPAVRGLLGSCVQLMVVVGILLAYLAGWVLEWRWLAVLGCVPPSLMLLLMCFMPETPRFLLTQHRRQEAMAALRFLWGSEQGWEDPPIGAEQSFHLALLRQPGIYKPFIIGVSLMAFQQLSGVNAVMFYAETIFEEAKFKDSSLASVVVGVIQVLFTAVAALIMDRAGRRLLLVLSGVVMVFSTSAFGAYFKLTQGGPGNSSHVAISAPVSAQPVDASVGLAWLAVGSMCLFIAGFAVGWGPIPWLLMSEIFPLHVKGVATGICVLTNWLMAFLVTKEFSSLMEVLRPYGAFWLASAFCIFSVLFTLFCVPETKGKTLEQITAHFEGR

[7] = target: T2, Solute carrier family 2, facilitated glucose transporter member 4 (Homo sapiens); assay: Antagonist activity at GLUT4 in human JJN3 cells assessed as reduction in [3H]2-deoxy-D-glucose uptake preincubated for 5 to 6 mins followed by [3H]2-deoxy-D-glucose addition measured after 4 to 6 mins; type: cell-based
JJN-3 [8] = assay: Inhibition of [3H]2-deoxy-D-glucose uptake in human JJN-3 cells transfected with GLUT4 shRNA preincubated for 5 to 6 mins followed by [3H]2-deoxy-D-glucose addition measured after 4 to 6 mins; type: functional, cell-based
[9] = target: T2, Solute carrier family 2, facilitated glucose transporter member 4 (Homo sapiens); assay: Antagonist activity at GLUT4 in human JJN-3 cells assessed as reduction in MCL-1 protein expression at 15 uM after 18 hrs by immunoblot analysis; type: cell-based
Bone marrow cell [10] = assay: Cytotoxicity in multiple myeloma patient derived CD38(-)/CD45(-) non-myeloma bone marrow cells at 10 uM incubated for 48 hrs by CellTiter-Glo assay; type: cell-based; details: human
[11] = target: T4, Solute carrier family 2, facilitated glucose transporter member 4 (Rattus norvegicus) (UniProt P19357); assay: Displacement of ATB-BMPA from rat C-terminal 6His/Myc-tagged GLUT4 expressed in HEK293 cell low density microsome assessed as ATB-BMPA binding level at 20 uM preincubated for 10 mins followed by ATB-BMPA addition measured after 10 mins relative to control; type: cell-based
T4 sequence (whole entry): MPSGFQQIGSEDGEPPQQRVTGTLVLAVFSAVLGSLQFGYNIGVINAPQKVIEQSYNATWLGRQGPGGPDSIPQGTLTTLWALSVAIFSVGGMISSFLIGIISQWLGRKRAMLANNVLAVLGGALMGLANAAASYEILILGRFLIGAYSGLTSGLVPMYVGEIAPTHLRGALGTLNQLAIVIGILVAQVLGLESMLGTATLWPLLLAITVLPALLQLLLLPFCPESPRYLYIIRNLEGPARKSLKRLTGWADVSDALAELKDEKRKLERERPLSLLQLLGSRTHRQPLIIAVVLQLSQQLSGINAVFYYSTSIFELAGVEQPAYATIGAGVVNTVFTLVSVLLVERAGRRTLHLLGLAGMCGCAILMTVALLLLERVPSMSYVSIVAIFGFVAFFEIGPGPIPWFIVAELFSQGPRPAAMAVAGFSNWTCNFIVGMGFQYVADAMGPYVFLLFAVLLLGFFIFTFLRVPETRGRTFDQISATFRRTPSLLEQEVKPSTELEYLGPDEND

[12] = target: T5, GLUT1 (solute carrier family 2, facilitated glucose transporter member 1) (Rattus norvegicus, UniProt P11167); assay: Displacement of ATB-BMPA from rat C-terminal 6His/Myc-tagged GLUT1 expressed in HEK293 cell low density microsome assessed as ATB-BMPA binding level at 20 uM preincubated for 10 mins followed by ATB-BMPA addition measured after 10 mins relative to control; type: cell-based; details: probe ATB-BMPA, read-out: Activity
T5 sequence (P11167 whole entry): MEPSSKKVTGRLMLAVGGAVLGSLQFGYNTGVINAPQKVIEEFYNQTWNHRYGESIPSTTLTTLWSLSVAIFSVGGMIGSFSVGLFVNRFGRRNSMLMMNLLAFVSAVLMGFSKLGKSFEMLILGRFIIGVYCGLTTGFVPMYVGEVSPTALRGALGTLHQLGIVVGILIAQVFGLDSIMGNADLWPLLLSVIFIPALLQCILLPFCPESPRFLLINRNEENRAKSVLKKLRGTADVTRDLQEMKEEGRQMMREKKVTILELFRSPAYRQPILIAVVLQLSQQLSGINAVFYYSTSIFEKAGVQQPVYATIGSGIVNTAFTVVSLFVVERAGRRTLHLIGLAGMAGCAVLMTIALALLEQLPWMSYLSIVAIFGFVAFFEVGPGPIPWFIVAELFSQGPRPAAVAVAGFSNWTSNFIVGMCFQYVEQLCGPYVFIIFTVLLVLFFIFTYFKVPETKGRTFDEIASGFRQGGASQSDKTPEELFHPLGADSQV

JJN-3 [13] = assay: Antiproliferative activity against human JJN-3 cells transfected with GLUT4 shRNA assessed as growth inhibition at 15 uM aftter 72 hrs by trypan blue dye-based cell counting analysis; type: functional
Bone marrow cell [14] = assay: Cytotoxicity in multiple myeloma patient derived CD38(-)/CD45(-) non-myeloma bone marrow cells at 10 uM in presence of ABT-199 incubated for 48 hrs by CellTiter-Glo assay; type: cell-based; details: human
KMS-11 [15] = assay: Cytotoxicity against human KMS11 cells after 72 hrs by AnnexinV/DAPI staining-based flow cytometric analysis; type: functional, cell-based
[16] = target: T2, Solute carrier family 2, facilitated glucose transporter member 4 (Homo sapiens); assay: Antagonist activity at GLUT4 in human L363 cells assessed as reduction in MCL-1 protein expression at 15 uM after 18 hrs by immunoblot analysis; type: cell-based
[17] = target: T2, Solute carrier family 2, facilitated glucose transporter member 4 (Homo sapiens); assay: Antagonist activity at GLUT4 in human […] cells assessed as increase in sensitivity to ABT-199-induced cytotoxicity by measuring cell death at 10 uM after 72 hrs by CellTiter-Glo assay; type: cell-based
[18] = target: T2, Solute carrier family 2, facilitated glucose transporter member 4 (Homo sapiens); assay: Antagonist activity at GLUT4 in multiple myeloma patient derived CD38+ and phyocerythrin-negative myeloma cells assessed as increase in sensitivity to ABT-199-induced cytotoxicity by measuring cell death at 10 uM after 48 hrs by CellTiter-Glo assay
[19] = target: T2, Solute carrier family 2, facilitated glucose transporter member 4 (Homo sapiens); assay: Antagonist activity at GLUT4 in human MM1S cells assessed as increase in sensitivity to dexamethasone-induced cytotoxicity by measuring cell death at 10 uM after 72 hrs by CellTiter-Glo assay; type: cell-based
[20] = target: T6, Solute carrier family 2, facilitated glucose transporter member 1 (Homo sapiens, UniProt P11166); assay: Antagonist activity at human GLUT1 expressed in HEK293 cells transfected with GLUT1 shRNA assessed as inhibition of [3H]2-deoxy-D-glucose uptake preincubated for 5 mins followed by [3H]2-deoxy-D-glucose addition and measured after 6 mins; type: cell-based
T6 sequence (P11166 whole entry): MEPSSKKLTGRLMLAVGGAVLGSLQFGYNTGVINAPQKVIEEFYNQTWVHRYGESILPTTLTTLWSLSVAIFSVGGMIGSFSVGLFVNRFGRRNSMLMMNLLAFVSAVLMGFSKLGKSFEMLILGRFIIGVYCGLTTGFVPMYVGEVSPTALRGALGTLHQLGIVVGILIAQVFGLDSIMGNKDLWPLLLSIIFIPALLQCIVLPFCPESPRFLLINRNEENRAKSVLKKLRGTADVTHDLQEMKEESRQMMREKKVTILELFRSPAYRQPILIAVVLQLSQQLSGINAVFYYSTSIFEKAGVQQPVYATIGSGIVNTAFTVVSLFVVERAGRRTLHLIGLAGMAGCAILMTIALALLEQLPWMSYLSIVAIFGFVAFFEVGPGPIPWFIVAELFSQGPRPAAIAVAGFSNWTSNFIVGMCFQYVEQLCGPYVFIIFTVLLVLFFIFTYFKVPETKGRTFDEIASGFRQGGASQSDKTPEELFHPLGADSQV

[21] = target: T2, Solute carrier family 2, facilitated glucose transporter member 4 (Homo sapiens); assay: Antagonist activity at GLUT4 in multiple myeloma patient derived CD38+ and phyocerythrin-negative myeloma cells assessed as increase in sensitivity to dexamethasone-induced cytotoxicity by measuring cell death at 10 uM after 48 hrs by CellTiter-Glo assay
[22] = target: T7, Solute carrier family 2, facilitated glucose transporter member 4 (Rattus norvegicus, UniProt P19357); assay: Antagonist activity at GLUT4 in rat adipocytes assessed as reduction in insulin-stimulated [3H]2-deoxyglucose uptake preincubated for 1 min followed by [3H]2-deoxyglucose addition measured after 1 min by liquid scintillation counting analysis; type: cell-based
T7 sequence (P19357 whole entry): T4 sequence (whole entry)

For `COc1ccc(C(=O)N(Cc2ccncc2)Cc2cccc(OCCc3ccccc3)c2)cc1`, the IC50 (KMS-11 [1]) was 16.9 µM.
For `COc1ccc(C(=O)N(Cc2ccncc2)Cc2cccc(OCc3cccc(OC)c3)c2)cc1`, the IC50 (KMS-11 [1]) was 16.9 µM and the IC50 [2] was 11 µM.
`COc1ccc(C(=O)N(Cc2ccncc2)Cc2cccc(OCCc3cccc(C(F)(F)F)c3)c2)cc1` was tested, and the IC50 (KMS-11 [1]) was 8.9 µM.
In the case of `COc1ccc(C(=O)N(Cc2ccncc2)Cc2cccc(OCC(=O)c3cccc(Br)c3)c2)cc1`, the IC50 (KMS-11 [1]) is reported as 18.7 µM.
In the case of `COc1ccc(C(=O)N(Cc2ccncc2)Cc2cccc(OCCc3ccc(Br)cc3)c2)cc1`, the IC50 (KMS-11 [1]) is reported as 8.4 µM.
`COc1ccc(C(=O)N(Cc2ccncc2)Cc2cccc(OCc3ccc(C(F)(F)F)cc3)c2)cc1` was tested, and the IC50 (KMS-11 [1]) was 14.3 µM.
For `COc1ccc(C(=O)N(Cc2ccncc2)Cc2cccc(OCC3CCOCC3)c2)cc1`, the IC50 (KMS-11 [1]) was 17.7 µM.
With `COc1ccc(CC(=O)N(Cc2ccncc2)Cc2cccc(OCCc3ccc(F)cc3)c2)cc1` the IC50 (KMS-11 [1]) was 13.4 µM, the inhibition [3] was “Active” and the Activity (Bone marrow cell [4]) was “Non-Toxic”. For the same compound, the Activity [5] was “Active”, the IC50 [6] was > 100 µM and the inhibition [7] was “Active”. The inhibition (JJN-3 [8]) was “Active”, the inhibition [9] was “inactive” and the Activity (Bone marrow cell [10]) was “Non-Toxic”. The Activity [11] was 64%, the activity at 10 min, 20 µM [12] was 35% and the Activity (JJN-3 [13]) was “inactive”. For the same compound, the Activity (Bone marrow cell [14]) was “Non-Toxic”, the Activity (KMS-11 [15]) was “Active” and the inhibition [16] was “Active”. The inhibition [17] was “Active”, the inhibition [18] was “Active” and the inhibition [19] was “Active”. For the same compound, the IC50 [20] was > 100 µM and the inhibition [21] was “Active”.
`COc1ccc(C(=O)N(Cc2ccncc2)Cc2cccc(OCCc3ccc(C)cc3)c2)cc1` gave an IC50 (KMS-11 [1]) of 9.1 µM.
`CCOC(=O)[C@H](Cc1ccccc1)NC(=O)[C@H](Cc1ccccc1)NC(=O)[C@H](Cc1cnc[nH]1)NC(=O)OCc1ccccc1` (Cbz-His-Phe-Phe-OEt) gave a Ki [22] of 26 µM.
